Common to all, as to type: biochemical
The target of one test is LRRK2 (WT) (Homo sapiens (Human), UniProt Q5S007). Put plainly: LRRK2 Kinase Assay (Adapta). The settings on record: 70 μM ATP, LRRKtide substrate. The method, then:
(§1) The LRRK2 and LRRK2 G2019S kinase assays were performed using the Adapta™ technology in ThermoFisher Scientific. This experiment was carried out according to the supplier's protocol. Briefly, assay conditions were as follows. The mixture of substrate (LRRKtide) and each kinase was prepared in 50 mM Tris pH 8.5, 0.01% BRIJ-35, 10 mM MgCl2, 1 mM EGTA, 0.02% NaN3. Assays were performed in the presence of 70 μM ATP and 100 μM ATP (KmATP) in LRRK2 and LRRK2 G2019S, respectively. The reaction was progressed at room temperature for 1 hour. Upon completion of kinase reaction, 5 μL of Detection Mix was added and after 60 min incubation time, the emission ratio of 665/615 nm was calculated.

For test [1], the target named is c-Abl (His-tagged recombinant human ABL1) (Homo sapiens (Human), UniProt P00519). Put plainly: c-abl Kinase Assay (ADP-Glo). The conditions noted are these: ATP (25 μM), Abltide substrate. The method, then: ADP-Glo assay kit was purchased from Promega. Magnesium chloride (MgCl2), bovine serum albumin (BSA), ethylene glycol-bis(p-aminoethyl ether)-N,N,N′,N′-tetraacetic acid (EGTA), triton X-100, 1,4-dithiothreitol (DTT) and dimethyl sulfoxide (DMSO) were purchased from Sigma-Aldrich. HEPES buffer was purchased from Gibco. ABL1 kinase and Abltide were purchased from Signalchem.
Chain of c-Abl (His-tagged recombinant human ABL1) (P00519 whole entry): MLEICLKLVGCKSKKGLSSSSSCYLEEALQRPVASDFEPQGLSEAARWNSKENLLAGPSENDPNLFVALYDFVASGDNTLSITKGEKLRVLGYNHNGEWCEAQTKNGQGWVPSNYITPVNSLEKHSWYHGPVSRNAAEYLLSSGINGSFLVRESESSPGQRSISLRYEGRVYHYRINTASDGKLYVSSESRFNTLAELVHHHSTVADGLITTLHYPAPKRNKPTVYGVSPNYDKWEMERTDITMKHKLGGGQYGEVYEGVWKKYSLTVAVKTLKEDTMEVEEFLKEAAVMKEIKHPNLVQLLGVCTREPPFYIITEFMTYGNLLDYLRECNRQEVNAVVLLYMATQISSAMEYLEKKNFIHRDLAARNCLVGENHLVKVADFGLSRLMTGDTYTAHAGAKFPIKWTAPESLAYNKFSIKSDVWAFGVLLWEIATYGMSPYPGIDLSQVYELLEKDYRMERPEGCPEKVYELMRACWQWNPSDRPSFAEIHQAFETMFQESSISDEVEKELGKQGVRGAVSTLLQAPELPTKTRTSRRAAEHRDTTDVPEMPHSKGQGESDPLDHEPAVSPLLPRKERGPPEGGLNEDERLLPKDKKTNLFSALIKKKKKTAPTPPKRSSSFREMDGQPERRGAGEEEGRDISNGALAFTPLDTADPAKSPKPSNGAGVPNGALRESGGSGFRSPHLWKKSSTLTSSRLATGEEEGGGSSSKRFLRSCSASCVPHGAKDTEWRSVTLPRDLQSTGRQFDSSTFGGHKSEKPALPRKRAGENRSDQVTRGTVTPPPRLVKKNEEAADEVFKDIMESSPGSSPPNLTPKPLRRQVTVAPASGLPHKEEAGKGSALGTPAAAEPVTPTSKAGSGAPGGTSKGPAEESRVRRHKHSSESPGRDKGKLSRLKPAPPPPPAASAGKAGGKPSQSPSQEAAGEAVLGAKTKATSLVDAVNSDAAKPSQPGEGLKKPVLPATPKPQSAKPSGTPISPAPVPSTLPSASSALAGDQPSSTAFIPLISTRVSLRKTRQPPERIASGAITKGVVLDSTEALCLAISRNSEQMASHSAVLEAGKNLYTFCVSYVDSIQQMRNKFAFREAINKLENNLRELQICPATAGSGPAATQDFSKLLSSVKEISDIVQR
c-Abl kinase activity was measured by Promega's ADP-Glo™ Assay. In this assay, His-tagged recombinant human ABL1 (0.25 ng/μl) is incubated with 5 μL of compounds (0.5% DMSO), 5 μL of Abltide (0.01 μg/μl) and 5 μL of ATP (25 μM) in buffer (50 mM HEPES, 7.5; 10 mM MgCl2; 1 mM EGTA; 0.05% BSA; 0.01% Triton X-100; 2 mM DTT). The assay was started by incubating the reaction mixture in a 96-well plate at 30° C. for 30-min. After the incubation, 25 μL ADP-Glo reagent was added and the reaction was incubated at room temperature for 40-min to stop the reaction and degrade residual ATP. The ADP product was then converted to ATP by adding 50 μL per well of detection reagent. Luminescence was detected after 30-min room temperature incubation with the Molecular device I3X plate reader. The IC50 values were calculated from a series of percent inhibition values determined at a range of inhibitor concentration using software routines as implemented in the GraphPad Prism 7 software and Sigma Plot 13.0.
In general terms: ADP-Glo turns the ADP formed in a reaction into a luminescent signal.

The next test addresses LRRK2 G2019S (Homo sapiens (Human), UniProt Q5S007, G2019S). Put plainly: LRRK2 G2019S Kinase Assay (Adapta). The settings on record: 100 μM ATP, LRRKtide substrate; read-out: LRRK2_G2019S IC50. The method, then:
as §1

Chain of LRRK2 (WT) (Q5S007 whole entry): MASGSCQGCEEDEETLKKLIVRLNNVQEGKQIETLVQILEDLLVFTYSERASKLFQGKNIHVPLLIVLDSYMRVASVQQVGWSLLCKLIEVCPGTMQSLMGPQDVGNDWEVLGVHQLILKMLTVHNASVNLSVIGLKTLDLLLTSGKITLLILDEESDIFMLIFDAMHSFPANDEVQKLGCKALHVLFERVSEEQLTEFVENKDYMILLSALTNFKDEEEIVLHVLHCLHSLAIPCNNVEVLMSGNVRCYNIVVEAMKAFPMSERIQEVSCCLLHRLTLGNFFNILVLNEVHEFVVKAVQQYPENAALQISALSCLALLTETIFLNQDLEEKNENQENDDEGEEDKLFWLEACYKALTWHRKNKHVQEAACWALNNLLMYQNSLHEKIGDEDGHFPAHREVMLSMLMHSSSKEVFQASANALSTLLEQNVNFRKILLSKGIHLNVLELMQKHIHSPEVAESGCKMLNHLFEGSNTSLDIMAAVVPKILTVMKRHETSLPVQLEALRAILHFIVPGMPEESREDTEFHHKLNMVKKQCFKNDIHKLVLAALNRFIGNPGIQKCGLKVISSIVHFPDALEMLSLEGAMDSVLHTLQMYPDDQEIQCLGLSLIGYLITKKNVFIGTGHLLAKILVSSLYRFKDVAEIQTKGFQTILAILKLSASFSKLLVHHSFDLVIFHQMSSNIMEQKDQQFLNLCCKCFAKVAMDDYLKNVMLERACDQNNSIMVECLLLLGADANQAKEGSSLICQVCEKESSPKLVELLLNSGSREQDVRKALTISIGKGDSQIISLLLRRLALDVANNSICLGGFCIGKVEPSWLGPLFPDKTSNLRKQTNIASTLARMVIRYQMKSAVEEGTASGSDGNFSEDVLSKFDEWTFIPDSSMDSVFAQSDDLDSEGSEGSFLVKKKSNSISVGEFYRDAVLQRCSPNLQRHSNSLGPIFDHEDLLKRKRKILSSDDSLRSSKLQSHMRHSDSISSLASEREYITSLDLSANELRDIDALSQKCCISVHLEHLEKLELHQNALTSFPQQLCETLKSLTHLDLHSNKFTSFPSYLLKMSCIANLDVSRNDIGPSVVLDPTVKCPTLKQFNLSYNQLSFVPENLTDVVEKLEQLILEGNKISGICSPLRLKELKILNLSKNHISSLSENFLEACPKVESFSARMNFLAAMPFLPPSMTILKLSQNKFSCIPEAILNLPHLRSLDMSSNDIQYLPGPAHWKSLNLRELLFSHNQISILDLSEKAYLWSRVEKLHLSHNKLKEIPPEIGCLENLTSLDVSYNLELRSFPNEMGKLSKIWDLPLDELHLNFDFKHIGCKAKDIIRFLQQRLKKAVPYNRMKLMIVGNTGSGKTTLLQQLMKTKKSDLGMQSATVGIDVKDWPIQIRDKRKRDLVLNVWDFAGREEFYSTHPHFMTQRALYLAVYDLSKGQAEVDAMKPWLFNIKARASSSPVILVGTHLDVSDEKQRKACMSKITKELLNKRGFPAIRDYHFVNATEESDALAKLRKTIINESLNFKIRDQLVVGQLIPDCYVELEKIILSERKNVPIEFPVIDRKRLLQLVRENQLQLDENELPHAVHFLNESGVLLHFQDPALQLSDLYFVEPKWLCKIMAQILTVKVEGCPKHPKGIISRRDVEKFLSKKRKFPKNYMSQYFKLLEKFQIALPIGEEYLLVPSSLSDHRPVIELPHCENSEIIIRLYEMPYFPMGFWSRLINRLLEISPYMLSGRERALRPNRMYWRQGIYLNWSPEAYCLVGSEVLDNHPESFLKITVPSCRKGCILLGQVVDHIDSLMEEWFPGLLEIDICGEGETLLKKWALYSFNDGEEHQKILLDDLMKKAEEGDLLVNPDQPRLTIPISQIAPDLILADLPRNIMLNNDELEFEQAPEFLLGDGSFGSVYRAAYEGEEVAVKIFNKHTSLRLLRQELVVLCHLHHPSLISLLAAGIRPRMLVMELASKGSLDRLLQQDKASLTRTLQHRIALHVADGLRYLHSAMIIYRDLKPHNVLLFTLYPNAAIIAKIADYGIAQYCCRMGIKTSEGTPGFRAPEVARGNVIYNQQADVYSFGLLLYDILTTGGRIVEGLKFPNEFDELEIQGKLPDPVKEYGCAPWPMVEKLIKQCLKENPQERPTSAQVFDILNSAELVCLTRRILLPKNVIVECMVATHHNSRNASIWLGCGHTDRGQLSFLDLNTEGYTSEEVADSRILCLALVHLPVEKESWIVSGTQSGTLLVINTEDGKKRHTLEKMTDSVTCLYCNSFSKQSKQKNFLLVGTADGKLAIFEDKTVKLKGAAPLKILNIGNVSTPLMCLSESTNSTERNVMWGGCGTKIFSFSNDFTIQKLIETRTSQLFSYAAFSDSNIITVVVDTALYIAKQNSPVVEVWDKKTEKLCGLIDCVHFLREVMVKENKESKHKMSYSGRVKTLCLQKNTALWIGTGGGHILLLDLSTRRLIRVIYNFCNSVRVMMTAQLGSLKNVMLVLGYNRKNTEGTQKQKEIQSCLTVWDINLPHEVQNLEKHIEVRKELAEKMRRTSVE
Chain of LRRK2 G2019S (Q5S007 whole entry G2019S): as the sequence (Q5S007 whole entry) above, with G2019S counted along it

On to `N#Cc1ccncc1-c1ccc2nc(NC(=O)[C@@H]3C[C@@H]3F)cn2c1` [Example 36, (1S,2S)—N-(6-(4-cyanopyridin-3-yl)imidazo[1,2-a]pyridin-2-yl)-2-fluorocyclopropane-1-carboxamide], for which the IC50 is over 1000 nM against LRRK2 (WT), 101 to 1000 nM in test [1] and 101 to 1000 nM at LRRK2 G2019S.
`Cc1ccc(N)cc1-c1ccc2nc(NC(=O)[C@@H]3C[C@@H]3F)cn2c1` [Example 23, (1S,2S)—N-(6-(5-amino-2-methylphenyl)imidazo[1,2-a]pyridin-2-yl)-2-fluorocyclopropane-1-carboxamide]: the values for the IC50 (against LRRK2 (WT); in test [1]; on LRRK2 G2019S) were 101 to 1000 nM, under 10 nM and 10 to 100 nM, respectively.
Regarding `O=C(Nc1cn2cc(-c3cccc(F)c3Cl)ccc2n1)[C@@H]1C[C@@H]1F` [Example 61, (1S,2S)—N-(6-(2-chloro-3-fluorophenyl)imidazo[1,2-a]pyridin-2-yl)-2-fluorocyclopropanecarboxamide], the IC50 against LRRK2 (WT) was 10 to 100 nM; in test [1], under 10 nM; on LRRK2 G2019S, 10 to 100 nM.
Turning to `NCc1c(F)cccc1-c1ccc2nc(NC(=O)[C@@H]3C[C@@H]3F)cn2c1` [Example 74, (1S,2S)—N-(6-(2-(aminomethyl)-3-fluorophenyl)imidazo[1,2-a]pyridin-2-yl)-2-fluorocyclopropanecarboxamide], the IC50 (against LRRK2 (WT); in test [1]; on LRRK2 G2019S) was over 1000 nM in each case.
As to `Cc1c(Cl)cccc1-c1ccc2nc(NC(=O)[C@@H]3C[C@@H]3F)cn2c1` [Example 30, (1S,2S)—N-(6-(3-chloro-2-methylphenyl)imidazo[1,2-a]pyridin-2-yl)-2-fluorocyclopropane-1-carboxamide], the IC50 at LRRK2 (WT) is 101 to 1000 nM; in test [1], under 10 nM; on LRRK2 G2019S it was 101 to 1000 nM.
As for `Cc1c(F)cccc1-c1ccc2nc(NC(=O)[C@H]3C[C@@H]3F)cn2c1` (stereo in doubt) [Example 71, 2-fluoro-N-(6-(3-fluoro-2-methylphenyl)imidazo[1,2-a]pyridin-2-yl)cyclopropanecarboxamide], the 50% inhibitory concentration (IC50) at LRRK2 (WT) is 101 to 1000 nM; in test [1], under 10 nM; on LRRK2 G2019S, 10 to 100 nM.
On to `Cc1ccncc1-c1ccc2nc(NC(=O)[C@@H]3C[C@@H]3F)cn2c1` [Example 6, (1S,2S)-2-fluoro-N-(6-(4-methylpyridin-3-yl)imidazo[1,2-a]pyridin-2-yl)cyclopropane-1-carboxamide], for which the results for the IC50 (at LRRK2 (WT); in test [1]; at LRRK2 G2019S) were 101 to 1000 nM, 10 to 100 nM and 101 to 1000 nM, respectively.
Turning to `Cc1ccncc1-c1ccc2nc(NC(=O)[C@@H]3C[C@@H]3F)c(C)n2c1` [Example 5, (1S,2S)-2-fluoro-N-(3-methyl-6-(4-methylpyridin-3-yl)imidazo[1,2-a]pyridin-2-yl)cyclopropane-1-carboxamide], the IC50 at LRRK2 (WT) was over 1000 nM; in test [1] it was 101 to 1000 nM; on LRRK2 G2019S it was over 1000 nM.
In the case of `Cc1c(F)cccc1-c1ccc2nc(NC(=O)C3CCC3)cn2c1` [Example 76, N-(6-(3-fluoro-2-methylphenyl)imidazo[1,2-a]pyridin-2-yl)cyclobutanecarboxamide], the IC50 (against LRRK2 (WT); in test [1]; at LRRK2 G2019S) was 10 to 100 nM throughout.
Consider `CC(=O)c1c(F)cccc1-c1ccc2nc(NC(=O)[C@@H]3C[C@@H]3F)cn2c1` [Example 68, (1S,2S)—N-(6-(2-acetyl-3-fluorophenyl)imidazo[1,2-a]pyridin-2-yl)-2-fluorocyclopropanecarboxamide], for which the IC50 against LRRK2 (WT) is over 1000 nM; in test [1], 10 to 100 nM; on LRRK2 G2019S, over 1000 nM.
On to `O=C(Nc1cn2cc(-c3cnccc3Cl)ccc2n1)[C@@H]1C[C@@H]1F` [Example 21, (1S,2S)—N-(6-(4-chloropyridin-3-yl)imidazo[1,2-a]pyridin-2-yl)-2-fluorocyclopropane-1-carboxamide], for which the IC50 fell in the range of 101 to 1000 nM against LRRK2 (WT), 10 to 100 nM in test [1] and 101 to 1000 nM on LRRK2 G2019S.
In the case of `Cc1c[nH]c2ncc(-c3ccc4nc(NC(=O)[C@@H]5C[C@@H]5F)cn4c3)cc12` [Example 53, (1S,2S)-2-fluoro-N-(6-(3-methyl-1H-pyrrolo[2,3-b]pyridin-5-yl)imidazo[1,2-a]pyridin-2-yl)cyclopropane-1-carboxamide], the results for the IC50 (against LRRK2 (WT); in test [1]; on LRRK2 G2019S) were 101 to 1000 nM, under 10 nM and 10 to 100 nM, respectively.
`COCc1c(F)cccc1-c1ccc2nc(NC(=O)[C@@H]3C[C@@H]3F)cn2c1` [Example 64, (1S,2S)-2-fluoro-N-(6-(3-fluoro-2-(methoxymethyl)phenyl)imidazo[1,2-a]pyridin-2-yl)cyclopropanecarboxamide]: the IC50 on LRRK2 (WT) is over 1000 nM; in test [1], under 10 nM; at LRRK2 G2019S it was 101 to 1000 nM.
With `Cc1cc(N)ncc1-c1ccc2nc(NC(=O)[C@@H]3C[C@@H]3F)cn2c1` [Example 49, (1S,2S)—N-(6-(6-amino-4-methylpyridin-3-yl)imidazo[1,2-a]pyridin-2-yl)-2-fluorocyclopropane-1-carboxamide], the IC50 on LRRK2 (WT) is over 1000 nM; in test [1], under 10 nM; on LRRK2 G2019S, over 1000 nM.
On to `Cc1c(F)cccc1-c1ccc2nc(NC(=O)C3CC(F)(F)C3)cn2c1` [Example 79, 3,3-difluoro-N-(6-(3-fluoro-2-methylphenyl)imidazo[1,2-a]pyridin-2-yl)cyclobutanecarboxamide], for which the IC50 against LRRK2 (WT) lay in the range of 101 to 1000 nM; in test [1], 10 to 100 nM; at LRRK2 G2019S it was 101 to 1000 nM.
For the compound `O=C(Nc1cn2cc(-c3cccc(F)c3COCCO)ccc2n1)[C@@H]1C[C@@H]1F` [Example 83, (1S,2S)-2-fluoro-N-(6-(3-fluoro-2-((2-hydroxyethoxy)methyl)phenyl)imidazo[1,2-a]pyridin-2-yl)cyclopropanecarboxamide], the results for the IC50 (at LRRK2 (WT); in test [1]; on LRRK2 G2019S) were 101 to 1000 nM, 101 to 1000 nM and over 1000 nM, respectively.
For the compound `Cc1ccc2[nH]ccc2c1-c1ccc2nc(NC(=O)[C@@H]3C[C@@H]3F)cn2c1` [Example 15, (1S,2S)-2-fluoro-N-(6-(5-methyl-1H-indol-4-yl)imidazo[1,2-a]pyridin-2-yl)cyclopropane-1-carboxamide], the IC50 (at LRRK2 (WT); in test [1]; at LRRK2 G2019S) was under 10 nM throughout.
As for `CC(=O)Nc1ccc(C)c(-c2ccc3nc(NC(=O)[C@@H]4C[C@@H]4F)cn3c2)c1` [Example 25, (1S,2S)—N-(6-(5-acetamido-2-methylphenyl)imidazo[1,2-a]pyridin-2-yl)-2-fluorocyclopropane-1-carboxamide], the IC50 is over 1000 nM on LRRK2 (WT), 10 to 100 nM in test [1] and 101 to 1000 nM at LRRK2 G2019S.
As to `Cc1cc(F)c(O)cc1-c1ccc2nc(NC(=O)[C@@H]3C[C@@H]3F)cn2c1` [Example 43, (1S,2S)-2-fluoro-N-(6-(4-fluoro-5-hydroxy-2-methylphenyl)imidazo[1,2-a]pyridin-2-yl)cyclopropane-1-carboxamide], the IC50 against LRRK2 (WT) is 101 to 1000 nM; in test [1], under 10 nM; at LRRK2 G2019S, 10 to 100 nM.
With `O=C(Nc1cn2cc(-c3cc[nH]n3)ccc2n1)[C@@H]1C[C@@H]1F` [Example 18, (1S,2S)—N-(6-(1H-pyrazol-3-yl)imidazo[1,2-a]pyridin-2-yl)-2-fluorocyclopropane-1-carboxamide], the IC50 (against LRRK2 (WT); in test [1]; at LRRK2 G2019S) was 101 to 1000 nM each time.
In the case of `Nc1ccc(-c2ccc3nc(NC(=O)[C@@H]4C[C@@H]4F)cn3c2)cn1` [Example 55, (1S,2S)—N-(6-(6-aminopyridin-3-yl)imidazo[1,2-a]pyridin-2-yl)-2-fluorocyclopropane-1-carboxamide], the figures for the IC50 (at LRRK2 (WT); in test [1]; at LRRK2 G2019S) were 101 to 1000 nM, 10 to 100 nM and 101 to 1000 nM, respectively.
With `CNc1ccc(C)c(-c2ccc3nc(NC(=O)[C@@H]4C[C@@H]4F)cn3c2)c1` [Example 24, (1S,2S)-2-fluoro-N-(6-(2-methyl-5-(methylamino)phenyl)imidazo[1,2-a]pyridin-2-yl)cyclopropane-1-carboxamide], the IC50 is 101 to 1000 nM against LRRK2 (WT), under 10 nM in test [1] and 10 to 100 nM at LRRK2 G2019S.
On to `COc1c(F)cccc1-c1ccc2nc(NC(=O)[C@@H]3C[C@@H]3F)cn2c1` [Example 59, (1S,2S)-2-fluoro-N-(6-(3-fluoro-2-methoxyphenyl)imidazo[1,2-a]pyridin-2-yl)cyclopropanecarboxamide], for which the IC50 against LRRK2 (WT) was 10 to 100 nM; in test [1], under 10 nM; on LRRK2 G2019S, 10 to 100 nM.

As a reminder, the IC50 is the point on the concentration scale where inhibition reaches its midpoint.

The record behind these values is patent US11098044B2, “Imidazopyridinyl compounds and use thereof for treatment of neurodegenerative disorders” (1ST Biotherapeutics, Inc., priority 2019, dated 2021).
